Measurements published in patent US5162326A, “Pyrimidinedione derivatives, their production and use” (Takeda Chemical Industries, Ltd., priority 1990, dated 1992).

Assays:
A-II-receptor = biological target: T1, A-II-receptor (Bos taurus, UniProt P25104); test: Inhibition of Binding of Angiotensin-II to Angiotensin Receptor (125I-A-II, membrane fraction of bovine adrenal cortex); details: room temperature, one hour
T1 construct: An A-II-receptor was prepared from the membrane fraction of bovine adrenal cortex; from tissue; host or cells: bovine adrenal cortex, membrane fraction
T1 sequence (P25104 1-359): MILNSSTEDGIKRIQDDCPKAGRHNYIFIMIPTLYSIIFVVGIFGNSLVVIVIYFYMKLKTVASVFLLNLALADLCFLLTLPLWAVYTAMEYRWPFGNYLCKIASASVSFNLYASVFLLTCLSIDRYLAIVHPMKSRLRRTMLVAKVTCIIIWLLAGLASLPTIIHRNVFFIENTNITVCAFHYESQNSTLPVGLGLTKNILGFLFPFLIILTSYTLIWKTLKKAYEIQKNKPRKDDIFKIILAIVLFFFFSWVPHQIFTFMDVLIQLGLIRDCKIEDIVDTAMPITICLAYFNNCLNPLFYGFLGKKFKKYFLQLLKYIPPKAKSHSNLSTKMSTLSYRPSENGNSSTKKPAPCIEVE
Method: Inhibition of Binding of Angiotensin-II to Angiotensin Receptor
An experiment of inhibition on the binding of angiotensin-II (A-II) to A-II-receptor was conducted by modifying the method of Douglas et al. [Endocrinology, 102, 685-696 (1978)]. An A-II-receptor was prepared from the membrane fraction of bovine adrenal cortex.
The compound of the present invention (10^-6 M to 10^-8 M) and ^125 I-A-II (1.85 kBq/50 μl) were added to the receptor membrane fraction, and the mixture was incubated at room temperature for one hour. The receptor-bound and free ^125 I-A-II were separated through a filter (Whatman GF/B filter), and the radioactivity of ^125 I-A-II bound to the receptor was measured.

Pressor Response to A II = test: Inhibitory Effect of the Compound on Pressor Action of A-II in rats; format: in vivo, Jcl: SD rats; details: Rattus norvegicus, po
Text: Inhibitory Effect of the Compound of the Present Invention on Pressor Action of A-II
Jcl: SD rats (9 week old, male) were used. On the day previous to the experiment, these animals were applied with cannulation into the femoral artery and vein under anesthesia with pentobarbital Na. The animals were fasted but allowed to access freely to drinking water until the experiment was started. Just on the day of conducting the experiment, the artery cannula was connected with a blood-pressure transducer, and the average blood pressure was recorded by means of polygraph. Before administration of the drug, the pressor action due to intravenous administration of A-II (100 ng/kg) as the control was measured. The drugs were orally administered, and then, at each point of the measurement, A-II was administered intravenously, and the pressor action was similarly measured. By comparing the pressor action before and after administration of the drug, the percent inhibition by the drug on A-II-induced pressor action was evaluated.

angiotensin II = details: reported in the literature; cited from earlier work

| IC50 (A-II-receptor) | Structure (SMILES) | inhibition in vivo at 30 mg/kg (Pressor Response to A II) | angiotensin II antagonistic activity (angiotensin II) |
| --- | --- | --- | --- |
| 0.86 µM | CCCn1c(=O)cc(SC)n(Cc2ccc(-c3ccccc3-c3nn[nH]n3)cc2)c1=O [compound 1] |  |  |
| 0.02 µM | CCCn1c(=O)cc(SCC)n(Cc2ccc(-c3ccccc3-c3nn[nH]n3)cc2)c1=O [compound 2] | ≥ 70% |  |
| 0.02 µM | CCCSc1cc(=O)n(CCC)c(=O)n1Cc1ccc(-c2ccccc2-c2nnn[nH]2)cc1 [compound 3] |  |  |
| 0.04 µM | CCCCSc1cc(=O)n(CCC)c(=O)n1Cc1ccc(-c2ccccc2-c2nn[nH]n2)cc1 [compound 4] | ≥ 70% |  |
| 0.32 µM | CCCn1c(=O)cc(SC2CCCCC2)n(Cc2ccc(-c3ccccc3-c3nn[nH]n3)cc2)c1=O [compound 5] | 30 to 50% |  |
| 0.02 µM | CCCCCSc1cc(=O)n(CCC)c(=O)n1Cc1ccc(-c2ccccc2-c2nn[nH]n2)cc1 [compound 6] | 30 to 50% |  |
| 0.33 µM | CCCn1c(=O)cc(SCc2ccccc2)n(Cc2ccc(-c3ccccc3-c3nn[nH]n3)cc2)c1=O [compound 7] | < 30% |  |
| 0.06 µM | CCCn1c(=O)cc(OCC)n(Cc2ccc(-c3ccccc3-c3nn[nH]n3)cc2)c1=O [compound 8] | ≥ 70% |  |
| 0.04 µM | CCCCn1c(=O)cc(SCCC)n(Cc2ccc(-c3ccccc3-c3nn[nH]n3)cc2)c1=O [compound 9] | ≥ 70% |  |
| 0.32 µM | CCCCn1c(=O)cc(Sc2ccccc2)n(Cc2ccc(-c3ccccc3-c3nn[nH]n3)cc2)c1=O [compound 10] | < 30% |  |
| 0.34 µM | CCCNc1cc(=O)n(CCC)c(=O)n1Cc1ccc(-c2ccccc2-c2nn[nH]n2)cc1 [compound 14] | < 30% |  |
| 0.14 µM | CCCOc1cc(=O)n(CCC)c(=O)n1Cc1ccc(-c2ccccc2-c2nnn[nH]2)cc1 [compound 18] | ≥ 70% |  |
| 0.02 µM | CCCc1cc(=O)n(CC)c(=O)n1Cc1ccc(-c2ccccc2-c2nn[nH]n2)cc1 [compound 23] | ≥ 70% |  |
| 0.02 µM | CCCc1cc(=O)n(CCC)c(=O)n1Cc1ccc(-c2ccccc2-c2nn[nH]n2)cc1 [compound 25] | ≥ 70% |  |
| 0.02 µM | CCCCn1c(=O)cc(CCC)n(Cc2ccc(-c3ccccc3-c3nn[nH]n3)cc2)c1=O [compound 26] | ≥ 70% |  |
| 0.01 µM | CCCc1cc(=O)n(CC(=O)OC)c(=O)n1Cc1ccc(-c2ccccc2-c2nn[nH]n2)cc1 [compound 27] | ≥ 70% |  |
| 0.02 µM | CCCc1cc(=O)n(CC(=O)OCC)c(=O)n1Cc1ccc(-c2ccccc2-c2nn[nH]n2)cc1 [compound 28] | ≥ 70% |  |
|  | CNCC(=O)N[C@@H](CCCN=C(N)N)C(=O)N[C@H](C(=O)N[C@@H](Cc1ccc(O)cc1)C(=O)N[C@H](C(=O)N[C@@H](Cc1cnc[nH]1)C(=O)N1CCC[C@H]1C(=O)N[C@@H](C)C(=O)O)C(C)C)C(C)C [saralasin] |  | potent angiotensin II antagonistic activity |
